We go through 18 compounds from patent US10272095B2 (GlaxoSmithKline Intellectual Property Development Limited, priority 2015, dated 2019).

One may read the EC50 as the midpoint of the concentration-response curve.

Where a name gives a salt, the structure may show the parent alone. Some results are limits rather than exact numbers.

The first experiment concerns NQO1 specific enzyme activity in BEAS-2B cells. In words: BEAS-2B NQO1 MTT assay. In kind it is cell-based. Conditions: Homo sapiens, BEAS-2B, 48 h, NQO1 specific enzyme activity induction in BEAS-2B cells, 48 hours; read-out: EC50. From the text:
NAD(P)H:quinone oxidoreductase 1 (NQO1), also called DT diaphorase, is a homodimeric FAD-containing enzyme that catalyzes obligatory NAD(P)H-dependent two-electron reductions of quinones and protects cells against the toxic and neoplastic effects of free radicals and reactive oxygen species arising from one-electron reductions. The transcription of NQO1 is finely regulated by NRF2, and thus NQO1 activity is a good marker for NRF2 activation. On day one, frozen BEAS-2B cells (ATCC) are thawed in a water bath, counted, and re-suspended at a concentration of 250,000 cells/mL. Fifty microliters of cells are plated in 384 well black clear-bottomed plates. Plates are incubated at 37° C., 5% CO2 overnight. On day two, plates are centrifuged and 50 nL of compound or controls are added to the cells. Plates are then incubated at 37° C., 5% CO2 for 48 hours. On day four, medium is aspirated from the plate and crude cell lysates are made by adding 13 uL of 1× Cell Signaling Technologies lysis buffer with 1 Complete, Mini, EDTA-free Protease Inhibitor Tablet (Roche) for each 10 mL of lysis buffer. After lysis plates are incubated for 20 minutes at room temperature. Two microliters of lysate are removed for use in Cell Titer Glo assay (Promega) and MTT cocktail is prepared (Prochaska et. al. 1998) for measurement of NQO1 activity. Fifty microliters of MTT cocktail is added to each well, plate is centrifuged, and analyzed on an Envision plate reader (Perkin Elmer) using Absorbance 570 nm label for 30 minutes. Product formation is measured kinetically and the pEC50 of NQO1 specific activity induction is calculated by plotting the change in absorbance (Delta OD/min) versus the log of compound concentration followed by 3-parameter fitting.
EC50s<1 nM (+++++), EC50s 10 nM-1 nM (++++), EC50s 10-100 nM (+++), EC50s 100 nM-1 uM (++), EC50s 1 uM-10 uM (+), EC50s>10 uM (−), or were not determined (ND).
For orientation: Formazan colour is commonly taken as a measure of viable cells.
Take `Cc1c([C@H](c2ccc3c(c2)[C@H](N2Cc4ncccc4OC(C)(C)C2)CC3)C(C)(C)C(=O)O)ccc2c1nnn2C` (racemic) [Example 67, rac-(R)-3-(1,4-Dimethyl-1H-benzo[d][1,2,3]triazol-5-yl)-3-(rac-(S)-3-(2,2-dimethyl-2,3-dihydropyrido[2,34][1,4]oxazepin-4(5H)-yl)-2,3-dihydro-1H-inden-5-yl)-2,2-dimethylpropanoic Acid, Trifluoroacetic Acid Salt]: the EC50 is under 1 nM. The same measure, in the same setting: to `Cc1c([C@H](c2ccc3c(c2)[C@@H](N2Cc4ncccc4OC(C)(C)C2)CC3)C(C)(C)C(=O)O)ccc2c1nnn2C` (racemic) [Example 68, rac-(R)-3-(1,4-Dimethyl-1H-benzo[d][1,2,3]triazol-5-yl)-3-(rac-(R)-3-(2,2-dimethyl-2,3-dihydropyrido[2,3-f][1,4]oxazepin-4(5H)-yl)-2,3-dihydro-1H-inden-5-yl)-2,2-dimethylpropanoic acid] belongs 10 to 100 nM; to `Cc1c([C@H](c2ccc3c(c2)[C@@H](N2Cc4ccncc4OC(C)(C)C2)CC3)C(C)(C)C(=O)O)ccc2c1nnn2C` (racemic) [Example 69, rac-(R)-3-(1,4--1H-benzo[d][1,2,3]triazol-5-yl)-3-(rac-(R)-3-(2,2-dimethyl-2,3-dihydropyrido[4,3-f][1,4]oxazepin-4(5H)-yl)-2,3-dihydro-1H-inden-5-yl)-2,2-dimethylpropanoic acid, Trifluoroacetic acid salt], under 1 nM; to `Cc1c([C@H](c2ccc3c(c2)[C@H](N2Cc4ccncc4OC(C)(C)C2)CC3)C(C)(C)C(=O)O)ccc2c1nnn2C` (racemic) [Example 70, rac-(R)-3-(1,4-Dimethyl-1H-benzo[d][1,2,3]triazol-5-yl)-3-(rac-(S)-3-(2,2-dimethyl-2,3-dihydropyrido[4,3-f][1,4]oxazepin-4(5H)-yl)-2,3-dihydro-1H-inden-5-yl)-2,2-dimethylpropanoic acid, Trifluoroacetic acid salt], 1 to 10 nM. Still for that read-out and setting: the figure for `CC[C@@H]1CN([C@@H]2CCc3ccc([C@@H](c4ccc5c(nnn5C)c4C)C(C)(C)C(=O)O)cc32)Cc2cnccc2O1` (relative stereo) [Example 71, rel-(S)-3-(1,4-Dimethyl-1H-benzo[d][1,2,3]triazol-5-yl)-3-(rel-(R)-3-((R)-2-ethyl-2,3-dihydropyrido[3,4-f][1,4]oxazepin-4(5H)-yl)-2,3-dihydro-1H-inden-5-yl)-2,2-dimethylpropanoic acid] is 1 to 10 nM. Still for that read-out and setting: the figure for `CC[C@@H]1CN([C@@H]2CCc3ccc(C(c4ccc5c(nnn5C)c4C)C(C)(C)C(=O)O)cc32)Cc2cnccc2O1` (relative stereo) [Example 75, rel-(S)-3-(1,4-Dimethyl-1H-benzo[d][1,2,3]triazol-5-yl)-3-(rel-(R)-3-((R)-2-ethyl-2,3-dihydropyrido[3,4-f][1,4]oxazepin-4(5H)-yl)-2,3-dihydro-1H-inden-5-yl)-2,2-dimethylpropanoic acid] is 10 to 100 nM. For `CC[C@@H]1CN([C@H]2CCc3ccc([C@H](c4ccc5c(nnn5C)c4C)C(C)(C)C(=O)O)cc32)Cc2cnccc2O1` (relative stereo) [Example 76, rel-(R)-3-(1,4-Dimethyl-1H-benzo[d][1,2,3]triazol-5-yl)-3-(rel-(S)-3-((R)-2-ethyl-2,3-dihydropyrido[3,4-f][1,4]oxazepin-4(5H)-yl)-2,3-dihydro-1H-inden-5-yl)-2,2-dimethylpropanoic acid], the EC50 was in the range of 1000 to 10000 nM. As to `CC[C@@H]1CN([C@H]2CCc3ccc([C@H](CC(=O)O)c4ccc5c(nnn5C)c4C)cc32)Cc2ccccc2O1` (relative stereo) [Example 81, rel-(S)-3-(1,4-Dimethyl-1H-benzo[d][1,2,3]triazol-5-yl)-3-(rel-(S)-3-((R)-2-ethyl-2,3-dihydrobenzo[f][1,4]oxazepin-4(5H)-yl)-2,3-dihydro-1H-inden-5-yl)propanoic Acid], the EC50 lay in the range of 10 to 100 nM.

Consider `CC[C@@H]1CN([C@@H]2CCc3ccc([C@H](CC(=O)O)c4ccc5c(nnn5C)c4C)cc32)Cc2ccccc2O1` (relative stereo) [Example 82, rel-(S)-3-(1,4-Dimethyl-1H-benzo[d][1,2,3]triazol-5-yl)-3-(rel-(R)-3-((R)-2-ethyl-2,3-dihydrobenzo[f][1,4]oxazepin-4(5H)-yl)-2,3-dihydro-1H-inden-5-yl)propanoic acid], for which the EC50 was 10 to 100 nM. The same measure, in the same setting: the figure for `CC[C@@H]1CN([C@@H]2CCc3ccc(C(CC(=O)O)c4ccc5c(nnn5C)c4C)cc32)Cc2ccccc2O1` (relative stereo) [Example 84, rel-(R)-3-(1,4-Dimethyl-1H-benzo[d][1,2,3]triazol-5-yl)-3-(rel-(R)-3-((R)-2-ethyl-2,3-dihydrobenzo[f][1,4]oxazepin-4(5H)-yl)-2,3-dihydro-1H-inden-5-yl)propanoic acid] is 1000 to 10000 nM; for `Cc1c([C@@H](CC(=O)O)c2ccc3c(c2)[C@H](N2Cc4ccccc4OC(C)(C)C2)CC3)ccc2c1nnn2C` (single isomer, unassigned) [Example 41, 3-(1,4-Dimethyl-1H-benzo[d][1,2,3]triazol-5-yl)-3-(3-(2,2-dimethyl-2,3-dihydrobenzo[f][1,4]oxazepin-4(5H)-yl)-2,3-dihydro-1H-inden-5-yl)propanoic Acid, Formic Acid Salt] it is 1 to 10 nM. Consider `Cc1c([C@H](c2ccc3c(c2)[C@H](N2Cc4ccccc4OC(C)(C)C2)CC3)C(C)(C)C(=O)O)ccc2c1nnn2C` (stereo in doubt) [Example 77, rel-(S)-3-(1,4-Dimethyl-1H-benzo[d][1,2,3]triazol-5-yl)-3-(rel-(R)-3-(2,2-dimethyl-2,3-dihydrobenzo[f][1,4]oxazepin-4(5H)-yl)-2,3-dihydro-1H-inden-5-yl)-2,2-dimethylpropanoic Acid], for which the EC50 is under 1 nM. Consider `Cc1c([C@H](c2ccc3c(c2)[C@@H](N2Cc4ccccc4OC(C)(C)C2)CC3)C(C)(C)C(=O)O)ccc2c1nnn2C` (stereo in doubt) [Example 78, rel-(S)-3-(1,4-Dimethyl-1H-benzo[d][1,2,3]triazol-5-yl)-3-(rel-(S)-3-(2,2-dimethyl-2,3-dihydrobenzo[f][1,4]oxazepin-4(5H)-yl)-2,3-dihydro-1H-inden-5-yl)-2,2-dimethylpropanoic acid], for which the EC50 fell in the range of 1 to 10 nM.

As for `Cc1c([C@@H](c2ccc3c(c2)[C@H](N2Cc4ccccc4OC(C)(C)C2)CC3)C(C)(C)C(=O)O)ccc2c1nnn2C` (stereo in doubt) [Example 79, rel-(R)-3-(1,4-Dimethyl-1H-benzo[d][1,2,3]triazol-5-yl)-3-(rel-(R)-3(2,2-dimethyl-2,3-dihydrobenzo[f][1,4]oxazepin-4(5H)-yl)-2,3-dihydro-1H-inden-5-yl)-2,2-dimethylpropanoic acid], the EC50 is 1 to 10 nM. Still for that read-out and setting: to `Cc1c([C@@H](c2ccc3c(c2)[C@@H](N2Cc4ccccc4OC(C)(C)C2)CC3)C(C)(C)C(=O)O)ccc2c1nnn2C` (stereo in doubt) [Example 80, rel-(R)-3-(1,4-Dimethyl-1H-benzo[d][1,2,3]triazol-5-yl)-3-(rel-(S)-3-(2,2-dimethyl-2,3-dihydrobenzo[f][1,4]oxazepin-4(5H)-yl)-2,3-dihydro-1H-inden-5-yl)-2,2-dimethylpropanoic acid] belongs 100 to 1000 nM.

As for `Cc1c(C(CC(=O)O)c2ccc3c(c2)[C@@H]2[C@@H](CC(=O)N2CC2CCCCC2)C3)ccc2c1nnn2C` (stereo partly drawn) [Example 1, 3-[(3aR,8bS)-1-(cyclohexylmethyl)-2-oxo-1H,2H,3H,3aH,4H,8bH-indeno[1,2-b]pyrrol-7-yl]-3-(1,4-dimethyl-1H-1,2,3-benzotriazol-5-yl)propanoic Acid], the EC50 lay within 100 to 1000 nM.

Still in this experiment, the particulars now being: NQO1 specific enzyme activity induction in BEAS-2B cells, 48 hours; read-out: EC50.
`CC[C@@H]1CN([C@H]2CCc3ccc([C@@H](c4ccc5c(nnn5C)c4C)C(C)(C)C(=O)O)cc32)Cc2cnccc2O1` (relative stereo) [Example 72, rel-(S)-3-(1,4-Dimethyl-1H-benzo[d][1,2,3]triazol-5-yl)-3-(rel-(S)-3-((R)-2-ethyl-2,3-dihydropyrido[3,4-f][1,4]oxazepin-4(5H)-yl)-2,3-dihydro-1H-inden-5-yl)-2,2-dimethylpropanoic acid]: the 50% effective concentration (EC50) lay in the range of 1 to 10 nM. The same measure, in the same setting: the figure for `CC[C@@H]1CN([C@H]2CCc3ccc([C@@H](c4ccc5c(nnn5C)c4C)C(C)(C)C(=O)O)cc32)Cc2cnccc2O1` (relative stereo) [Example 85, rel-(S)-3-(1,4-Dimethyl-1H-benzo[d][1,2,3]triazol-5-yl)-3-(rel-(S)-3-((R)-2-ethyl-2,3-dihydropyrido[3,4-f][1,4]oxazepin-4(5H)-yl)-2,3-dihydro-1H-inden-5-yl)-2,2-dimethylpropanoic Acid] is 10 to 100 nM.
